In the first experiment the test system is production of CD69 by B lymphocytes in human whole blood activated with goat F(ab')2 anti-human IgM. The experiment in a line: CD69 Whole Blood Assay (CD69 Hu Blood FACS). In kind it is cell-based. Particulars: anti-IgM stimulated, 20 hour incubation, CD69+ of CD20+ cells, Table 1. An excerpt: A CD69 Whole Blood Assay can be conducted on Formula I compounds to determine the ability of compounds to inhibit the production of CD69 by B lymphocytes in human whole blood activated by crosslinking surface IgM with goat F(ab′)2 anti-human IgM (Example 907). CD69 is a type II C-type lectin involved in lymphocyte migration and cytokine secretion. CD69 expression represents one of the earliest available indicators of leukocyte activation and its rapid induction occurs through transcriptional activation (Vazquez et al (2009) Jour. of Immunology Published Oct. 19, 2009, doi:10.4049/jimmunol.0900839). Concentration-dependent inhibition of antigen receptor stimulation by selective Btk inhibitors induces cell surface expression of the lymphocyte activation marker CD69 (Honigberg et al (2010) Proc. Natl. Acad. Sci. 107(29):13075-13080). Thus, CD69 inhibition by selective Btk inhibitors may be correlated with therapeutic efficacy of certain B-cell disorders.
Human blood is obtained from healthy volunteers, with the following restrictions: 1 week drug-free, non-smokers. Blood (approximately 20 mls to test 8 compounds) is collected by venipuncture into Vacutainer® (Becton, Dickinson and Co.) tubes with sodium heparin.
Solutions of Formula I compounds at 10 mM in DMSO are diluted 1:10 in 100% DMSO, then are diluted by three-fold serial dilutions in 100% DMSO for a ten point dose-response curve. The compounds are further diluted 1:10 in PBS and then an aliquot of 5.5 μl of each compound is added in duplicate to a 2 ml 96-well plate; 5.5 μl of 10% DMSO in PBS is added as control and no-stimulus wells. Human whole blood—HWB (100 μl) is added to each well. After mixing the plates are incubated at 37° C., 5% CO2, 100% humidity for 30 minutes. Goat F(ab′)2 anti-human IgM (10 μl of a 500 μg/ml solution, 50 μg/ml final) is added to each well (except the no-stimulus wells) with mixing and the plates are incubated for an additional 20 hours. At the end of the 20 hour incubation, samples are incubated with fluorescent labeled antibodies for 30 minutes, at 37° C., 5% CO2, 100% humidity. Include induced control, unstained and single stains for compensation adjustments and initial voltage settings. Samples are then lysed with PharM Lyse™ (BD Biosciences Pharmingen) according to the manufacturer's instructions. Samples are then transferred to a 96 well plate suitable to be run on the BD Biosciences HTS 96 well system on the LSRII machine. Data acquired and Mean Fluorescence Intensity values were obtained using BD Biosciences DIVA Software. Results are initially analyzed by FACS analysis software (Flow Jo).
Compound `CN1CCN(c2ccc(Nc3cc(-c4cc(F)cc(N5CCn6c(cc7c6CCCC7)C5=O)c4CO)cn4ccnc34)nc2)CC1` [Compound 101, 2-(5-Fluoro-2-(hydroxymethyl)-3-(8-(5-(4-methylpiperazin-1-yl)pyridin-2-ylamino)imidazo[1,2-a]pyridin-6-yl)phenyl)-3,4,6,7,8,9-hexahydropyrazino[1,2-a]indol-1(2H)-one] showed a CD69 Hu Blood FACS IC70 of 0.007 µM. On the same count and under the same terms, as for `O=C1c2sc3c(c2CCN1c1cc(F)cc(-c2cc(Nc4ccc(N5CCN(C6COC6)CC5)cn4)c4nccn4n2)c1CO)CCCC3` [Compound 111, 5-[5-Fluoro-2-(hydroxymethyl)-3-(8-(5-(4-(oxetan-3-yl)piperazin-1-yl)pyridin-2-ylamino)imidazo[1,2-b]pyridazin-6-yl)phenyl]-8-thia-5-azatricyclo[7.4.0.0^2,7]trideca-1(9),2(7)-dien-6-one], the figure is 0.313 µM; as for `O=C1c2cc3c(n2CCN1c1nccc(-c2cc(Nc4ccc(N5CCN(C6COC6)CC5)cn4)c4nccn4n2)c1CO)CCCC3` [Compound 114, 2-(3-(Hydroxymethyl)-4-(8-(5-(4-(oxetan-3-yl)piperazin-1-yl)pyridin-2-ylamino)imidazo[1,2-b]pyridazin-6-yl)pyridin-2-yl)-3,4,6,7,8,9-hexahydropyrazino[1,2-a]indol-1(2H)-one], 0.118 µM; as for `CC1(C)Cc2sc3c(c2C1)CCN(c1cc(F)cc(-c2cc(Nc4ccc(N5CCN(C6COC6)CC5)cn4)c4nccn4n2)c1CO)C3=O` [Compound 113, 10-[5-Fluoro-2-(hydroxymethyl)-3-(8-(5-(4-(oxetan-3-yl)piperazin-1-yl)pyridine-2-ylamino)imidazo[1,2-b]pyridazin-6-yl)phenyl]-4,4-dimethyl-7-thia-10-azatricyclo[6.4.0.0^2,6]dodeca-1(8),2(6)-dien-9-one], 0.012 µM. As to `O=C1c2cc3c(n2CCN1c1cc(F)cc(-c2cc(Nc4ccc(N5CCN(C6COC6)CC5)cn4)c4nccn4n2)c1CO)CCCC3` [Compound 105, 2-(5-Fluoro-2-(hydroxymethyl)-3-(8-(5-(4-(oxetan-3-yl)piperazin-1-yl)pyridin-2-ylamino)imidazo[1,2-b]pyridazin-6-yl)phenyl)-3,4,6,7,8,9-hexahydro-pyrazino[1,2-a]indol-1(2H)-one], the CD69 Hu Blood FACS IC70 came out at 0.049 µM. In turn, `CN1CCN(c2ccc(Nc3cc(-c4cc(F)cc(N5CCc6c(sc7c6CCCC7)C5=O)c4CO)cn4ccnc34)nc2)CC1` [Compound 103, 5-[5-Fluoro-2-(hydroxymethyl)-3-{(8-(5-(4-methylpiperazin-1-yl)pyridine-2-ylamino)imidazo[1,2-a]pyridin-6-yl)}phenyl]-8-thia-5-azatricyclo[7.4.0.0^2,7]trideca-1(9),2(7)-dien-6-one] displayed a CD69 Hu Blood FACS IC70 of 0.319 µM.

On to `CN1CCN(c2ccc(Nc3nc(-c4cc(F)cc(N5CCn6c(cc7c6CCCC7)C5=O)c4CO)cn4ccnc34)nc2)CC1` [Compound 106, 2-(5-Fluoro-2-(hydroxymethyl)-3-(8-(5-(4-methylpiperazin-1-yl)pyridin-2-ylamino)imidazo[1,2-a]pyrazin-6-yl)phenyl)-3,4,6,7,8,9-hexahydropyrazino[1,2-a]indol-1(2H)-one], for which the CD69 Hu Blood FACS IC70 came out at 0.814 µM.

As to `O=c1c2sc3c(c2cnn1-c1cc(F)cc(-c2cc(Nc4ccc(N5CCN(C6COC6)CC5)cn4)c4nccn4n2)c1CO)CCCC3` [Compound 112, 5-[5-Fluoro-2-(hydroxymethyl)-3-(8-(5-(4-(oxetan-3-yl)piperazin-1-yl)pyridin-2-ylamino)imidazo[1,2-b]pyridazin-6-yl)phenyl]-8-thia-4,5-diazatricyclo-[7.4.0.0^2,7]trideca-1(9),2(7),3-trien-6-one], the CD69 Hu Blood FACS IC70 amounted to 0.126 µM. Take `O=C1c2cc3c(n2CCN1c1cc(F)cc(-c2cc(Nc4ccc(N5CCN(C6COC6)CC5)cn4)c4ncnn4c2)c1CO)CCCC3` [Compound 108, 2-(5-Fluoro-2-(hydroxymethyl)-3-(8-(5-(4-(oxetan-3-yl)piperazin-1-yl)pyridin-2-ylamino)-[1,2,4]triazolo[1,5-a]pyridin-6-yl)phenyl)-3,4,6,7,8,9-hexahydropyrazino[1,2-a]indol-1(2H)-one]: the CD69 Hu Blood FACS IC70 is 0.058 µM. Same read-out and setting: as for `CC1(C)Cc2cc3n(c2C1)CCN(c1cc(F)cc(-c2cc(Nc4ccc(N5CCN(C6COC6)CC5)cn4)c4nccn4n2)c1CO)C3=O` [Compound 110, 10-[5-Fluoro-2-(hydroxymethyl)-3-(8-(5-(4-(oxetan-3-yl)piperazin-1-yl)pyridin-2-ylamino)imidazo[1,2-b]pyridazin-6-yl)phenyl]-4,4-dimethyl-1,10-diazatricyclo[6.4.0.0^2,6]dodeca-2(6),7-dien-9-one], the figure is 0.015 µM; as for `O=C1c2cc3c(n2CCN1c1cc(F)cc(-c2cc(Nc4ccc(N5CCN(C6COC6)CC5)cn4)c4nccn4c2)c1CO)CCCC3` [Compound 102, 2-(5-Fluoro-2-(hydroxymethyl)-3-(8-(5-(4-(oxetan-3-yl)piperazine-1-yl)pyridine-2-ylamino)imidazo[1,2-a]pyridin-6-yl)phenyl)-3,4,6,7,8,9-hexahydro-pyrazino[1,2-a]indol-1(2H)-one], 0.011 µM.

Still in this experiment, the particulars now being: anti-IgM stimulated, 20 hour incubation, CD69+ of CD20+ cells, Table 2.
`CN1CCn2nc(Nc3cc(-c4ccnc(N5CCn6c(cc7c6CCCC7)C5=O)c4CO)nn4ccnc34)cc2C1` [Compound 124, 2-[3-(hydroxymethyl)-4-[8-[(5-methyl-6,7-dihydro-4H-pyrazolo[1,5-a]pyrazin-2-yl)amino]imidazo[1,2-b]pyridazin-6-yl]-2-pyridyl]-3,4,6,7,8,9-hexahydropyrazino[1,2-a]indol-1-one] yielded a CD69 Hu Blood FACS IC70 of 0.333 µM. The same measure, in the same setting: as for `O=C1c2cc3c(n2CCN1c1nccc(-c2cc(Nc4ccc(N5CCN(C6COC6)CC5)cn4)c4nccn4c2)c1CO)CCCC3` [Compound 121, 2-[3-(hydroxymethyl)-4-[8-[[5-[4-(oxetan-3-yl)piperazin-1-yl]-2-pyridyl]amino]imidazo[1,2-a]pyridin-6-yl]-2-pyridyl]-3,4,6,7,8,9-hexahydropyrazino[1,2-a]indol-1-one], the figure is 0.279 µM.

In the case of `O=C1c2cc3c(n2CCN1c1nccc(-c2cc(Nc4ccc(N5CCN(C6COC6)CC5)cn4)c4nc[nH]c4c2)c1CO)CCCC3` [Compound 118, 2-[3-(hydroxymethyl)-4-[7-[[5-[4-(oxetan-3-yl)piperazin-1-yl]-2-pyridyl]amino]-3H-benzimidazol-5-yl]-2-pyridyl]-3,4,6,7,8,9-hexahydropyrazino[1,2-a]indol-1-one], the CD69 Hu Blood FACS IC70 worked out at 4.3 µM. Same read-out and setting: as for `O=C1c2cc3c(n2CCN1c1nccc(-c2cc(Nc4ccc(N5CCN(C6COC6)CC5)cn4)c4ncnn4c2)c1CO)CCCC3` [Compound 122, 2-[3-(hydroxymethyl)-4-[8-[[5-[4-(oxetan-3-yl)piperazin-1-yl]-2-pyridyl]amino]-[1,2,4]triazolo[1,5-a]pyridin-6-yl]-2-pyridyl]-3,4,6,7,8,9-hexahydropyrazino[1,2-a]indol-1-one], the figure is 0.208 µM. The compound `O=C1c2cc3n(c2CCN1c1cc(F)cc(-c2nc(Nc4ccc(N5CCN(C6COC6)CC5)cc4)c4nc[nH]c4n2)c1CO)CCCC3` [Compound 120, 2-[5-fluoro-2-(hydroxymethyl)-3-[6-[4-[4-(oxetan-3-yl)piperazin-1-yl]anilino]-9H-purin-2-yl]phenyl]-3,4,6,7,8,9-hexahydropyrido[3,4-b]indolizin-1-one] gave a CD69 Hu Blood FACS IC70 of 1.9 µM.

Regarding `O=C1c2sc3c(c2CCN1c1cc(F)cc(-c2nc(Nc4ccc(N5CCN(C6COC6)CC5)cc4)c4nc[nH]c4n2)c1CO)CCCC3` [Compound 119, 2-[5-fluoro-2-(hydroxymethyl)-3-[6-[4-[4-(oxetan-3-yl)piperazin-1-yl]anilino]-9H-purin-2-yl]phenyl]-3,4,5,6,7,8-hexahydrobenzothiopheno[2,3-c]pyridin-1-one], the CD69 Hu Blood FACS IC70 was determined as 0.727 µM. In turn, `O=C1c2cc3c(n2CCN1c1cc(F)cc(-c2nc(Nc4ccc(N5CCN(C6COC6)CC5)cc4)c4nc[nH]c4n2)c1CO)CCCC3` [Compound 117, 2-[5-fluoro-2-(hydroxymethyl)-3-[6-[4-[4-(oxetan-3-yl)piperazin-1-yl]anilino]-9H-purin-2-yl]phenyl]-3,4,6,7,8,9-hexahydropyrazino[1,2-a]indol-1-one] yielded a CD69 Hu Blood FACS IC70 of 0.812 µM.
